Patent publication US8076487B2, “Pyridone derivative and herbicide” (Kumiai Chemical Industry Co., Ltd., priority 2006, dated 2011)

How the values were obtained:
Assay type in all cases: in vivo
[1] = test system: Japanese bulrush (Scirpus juncoides Roxb.); test: Test Example 1: herbicidal effect by soil application to paddy field; details: paddy field soil application; active ingredient 1,000 g per 1 hectare; wettable powder added dropwise to water surface the day after sowing; examined on the 21st day after application
How it was run: (§1)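 Plants were sown in flooded (3 cm) paddy soil and evaluated for herbicidal effect 21 days after soil application in a greenhouse.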

[2] = test system: early watergrass (Echinochloa oryzicola Vasing); test: as above; details: paddy field soil application; active ingredient 1,000 g per 1 hectare; wettable powder added dropwise to water surface the day after sowing; examined on the 21st day after application
How it was run: as §1

[3] = test system: heartshape false pickerelweed (Monochoria vaginalis (Burm.f.) C.Presl); test: as above; details: paddy field soil application; active ingredient 1,000 g per 1 hectare; wettable powder added dropwise to water surface the day after sowing; examined on the 21st day after application
How it was run: as §1

[4] = test system: barnyardgrass (Echinochloa crus-galli (L.) P. Beauv. var. crus-galli); test: Test Example 2: herbicidal effect by soil application to upland field; details: soil surface spray, upland field soil, 1,000 g active ingredient per hectare, 21st day after application
How it was run: (§2)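 Dose was 1,000 g active ingredient per hectare, applied as a wettable powder diluted in water and sprayed evenly over the soil of sown, covered pots at a 1,000 L/ha equivalent. Effect was judged by a standard scale 21 d later under greenhouse conditions.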

[5] = test system: green foxtail (Setaria viridis (L.) P. Beauv.); test: as above; details: soil surface spray, upland field soil, 1,000 g active ingredient per hectare, 21st day after application
How it was run: as §2

[6] = test system: slender amaranth (Amaranthus viridis L.); test: as above; details: soil surface spray, upland field soil, 1,000 g active ingredient per hectare, 21st day after application
How it was run: as §2

[7] = test system: velvetleaf (Abutilon theophrasti medicus); test: as above; details: soil surface spray, upland field soil, 1,000 g active ingredient per hectare, 21st day after application
How it was run: as §2

[8] = test system: barnyardgrass (Echinochloa crus-galli (L.) P. Beauv. var. crus-galli); test: Test Example 3: herbicidal effect by application to upland field (foliage treatment); details: 14th day after application; for herbicidal effect (index), Barnyardgrass: foliage treatment, plants grown two weeks, 1,000 g active ingredient per hectare; for herbicidal effect, Barnyardgrass: foliage treatment, 1,000 g active ingredient per 1 hectare, greenhouse
How it was run: (§3)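 Post-emergence spray at 1,000 g AI/ha of wettable powder in water (1,000 L/ha), onto seedlings grown 2 weeks in greenhouse field-soil pots. Graded day 14.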

[9] = test system: green foxtail (Setaria viridis (L.) P. Beauv.); test: as above; details: 14th day after application; for herbicidal effect (index), Green Foxtail: foliage treatment, plants grown two weeks, 1,000 g active ingredient per hectare; for herbicidal effect, Green Foxtail: foliage treatment, 1,000 g active ingredient per 1 hectare, greenhouse
How it was run: as §3

[10] = test system: slender amaranth (Amaranthus viridis L.); test: as above; details: 14th day after application; for herbicidal effect (index), Slender Amaranth: foliage treatment, plants grown two weeks, 1,000 g active ingredient per hectare; for herbicidal effect, Slender Amaranth: foliage treatment, 1,000 g active ingredient per 1 hectare, greenhouse
How it was run: as §3

[11] = test system: velvetleaf (Abutilon theophrasti medicus); test: as above; details: 14th day after application; for herbicidal effect (index), Velvetleaf: foliage treatment, plants grown two weeks, 1,000 g active ingredient per hectare; for herbicidal effect, Velvetleaf: foliage treatment, 1,000 g active ingredient per 1 hectare, greenhouse
How it was run: as §3

## O=C1CCCC(O)=C1C(=O)c1ccc(C(F)(F)F)n(-c2cc(F)cc(F)c2)c1=O [I-106]
[1]
  herbicidal effect, Scirpus juncoides Roxb.: 5 (90% or more of herbicidal effect and crop phytotoxicity)
[2]
  herbicidal effect, Echinochloa oryzicola Vasing: 5 (90% or more of herbicidal effect and crop phytotoxicity)
[3]
  herbicidal effect, Monochoria vaginalis (Burm. f.) C. Presl: 5 (90% or more of herbicidal effect and crop phytotoxicity)
[4]
  herbicidal effect (index), Barnyardgrass: 5 (90% or more of herbicidal effect and crop phytotoxicity)
[5]
  herbicidal effect (index), Green Foxtail: 5 (90% or more of herbicidal effect and crop phytotoxicity)
[6]
  herbicidal effect (index), Slender Amaranth: 5 (90% or more of herbicidal effect and crop phytotoxicity)
[7]
  herbicidal effect (index), Velvetleaf: 5 (90% or more of herbicidal effect and crop phytotoxicity)
[8]
  herbicidal effect (index), Barnyardgrass: 5 (90% or more of herbicidal effect and crop phytotoxicity)
[9]
  herbicidal effect (index), Green Foxtail: 5 (90% or more of herbicidal effect and crop phytotoxicity)
[10]
  herbicidal effect (index), Slender Amaranth: 5 (90% or more of herbicidal effect and crop phytotoxicity)
[11]
  herbicidal effect (index), Velvetleaf: 5 (90% or more of herbicidal effect and crop phytotoxicity)

## O=C1CCCC(O)=C1C(=O)c1ccc(C(F)(F)F)n(-c2cc([N+](=O)[O-])ccc2F)c1=O [I-107]
[1]
  herbicidal effect, Scirpus juncoides Roxb.: 5 (90% or more of herbicidal effect and crop phytotoxicity)
[2]
  herbicidal effect, Echinochloa oryzicola Vasing: 5 (90% or more of herbicidal effect and crop phytotoxicity)
[3]
  herbicidal effect, Monochoria vaginalis (Burm. f.) C. Presl: 5 (90% or more of herbicidal effect and crop phytotoxicity)
[4]
  herbicidal effect (index), Barnyardgrass: 5 (90% or more of herbicidal effect and crop phytotoxicity)
[5]
  herbicidal effect (index), Green Foxtail: 5 (90% or more of herbicidal effect and crop phytotoxicity)
[6]
  herbicidal effect (index), Slender Amaranth: 5 (90% or more of herbicidal effect and crop phytotoxicity)
[7]
  herbicidal effect (index), Velvetleaf: 5 (90% or more of herbicidal effect and crop phytotoxicity)
[8]
  herbicidal effect (index), Barnyardgrass: 5 (90% or more of herbicidal effect and crop phytotoxicity)
[9]
  herbicidal effect (index), Green Foxtail: 3 (50 to less than 70% of herbicidal effect and crop phytotoxicity)
[10]
  herbicidal effect (index), Slender Amaranth: 5 (90% or more of herbicidal effect and crop phytotoxicity)
[11]
  herbicidal effect (index), Velvetleaf: 5 (90% or more of herbicidal effect and crop phytotoxicity)

## COc1cc(-n2c(C(F)(F)F)ccc(C(=O)C3=C(O)CCCC3=O)c2=O)ccc1Cl [I-108]
[1]
  herbicidal effect, Scirpus juncoides Roxb.: 5 (90% or more of herbicidal effect and crop phytotoxicity)
[2]
  herbicidal effect, Echinochloa oryzicola Vasing: 5 (90% or more of herbicidal effect and crop phytotoxicity)
[3]
  herbicidal effect, Monochoria vaginalis (Burm. f.) C. Presl: 5 (90% or more of herbicidal effect and crop phytotoxicity)
[4]
  herbicidal effect (index), Barnyardgrass: 5 (90% or more of herbicidal effect and crop phytotoxicity)
[5]
  herbicidal effect (index), Green Foxtail: 4 (70 to less than 90% of herbicidal effect and crop phytotoxicity)
[6]
  herbicidal effect (index), Slender Amaranth: 5 (90% or more of herbicidal effect and crop phytotoxicity)
[7]
  herbicidal effect (index), Velvetleaf: 5 (90% or more of herbicidal effect and crop phytotoxicity)
[8]
  herbicidal effect (index), Barnyardgrass: 5 (90% or more of herbicidal effect and crop phytotoxicity)
[9]
  herbicidal effect (index), Green Foxtail: 5 (90% or more of herbicidal effect and crop phytotoxicity)
[10]
  herbicidal effect (index), Slender Amaranth: 5 (90% or more of herbicidal effect and crop phytotoxicity)
[11]
  herbicidal effect (index), Velvetleaf: 5 (90% or more of herbicidal effect and crop phytotoxicity)

## COc1ccc(-n2c(C(F)(F)F)ccc(C(=O)C3=C(O)CCCC3=O)c2=O)cc1F [I-109]
[1]
  herbicidal effect, Scirpus juncoides Roxb.: 5 (90% or more of herbicidal effect and crop phytotoxicity)
[2]
  herbicidal effect, Echinochloa oryzicola Vasing: 4 (70 to less than 90% of herbicidal effect and crop phytotoxicity)
[3]
  herbicidal effect, Monochoria vaginalis (Burm. f.) C. Presl: 5 (90% or more of herbicidal effect and crop phytotoxicity)
[4]
  herbicidal effect (index), Barnyardgrass: 5 (90% or more of herbicidal effect and crop phytotoxicity)
[5]
  herbicidal effect (index), Green Foxtail: 5 (90% or more of herbicidal effect and crop phytotoxicity)
[6]
  herbicidal effect (index), Slender Amaranth: 5 (90% or more of herbicidal effect and crop phytotoxicity)
[7]
  herbicidal effect (index), Velvetleaf: 5 (90% or more of herbicidal effect and crop phytotoxicity)
[8]
  herbicidal effect, Barnyardgrass: 5 (90% or more of herbicidal effect and crop phytotoxicity)
[9]
  herbicidal effect, Green Foxtail: 4 (70 to less than 90% of herbicidal effect and crop phytotoxicity)
[10]
  herbicidal effect, Slender Amaranth: 5 (90% or more of herbicidal effect and crop phytotoxicity)
[11]
  herbicidal effect, Velvetleaf: 5 (90% or more of herbicidal effect and crop phytotoxicity)

## COc1ccc(-n2c(C(F)(F)F)ccc(C(=O)C3=C(O)CCCC3=O)c2=O)cc1Cl [I-110]
[1]
  herbicidal effect, Scirpus juncoides Roxb.: 5 (90% or more of herbicidal effect and crop phytotoxicity)
[2]
  herbicidal effect, Echinochloa oryzicola Vasing: 5 (90% or more of herbicidal effect and crop phytotoxicity)
[3]
  herbicidal effect, Monochoria vaginalis (Burm. f.) C. Presl: 5 (90% or more of herbicidal effect and crop phytotoxicity)
[4]
  herbicidal effect (index), Barnyardgrass: 5 (90% or more of herbicidal effect and crop phytotoxicity)
[5]
  herbicidal effect (index), Green Foxtail: 4 (70 to less than 90% of herbicidal effect and crop phytotoxicity)
[6]
  herbicidal effect (index), Slender Amaranth: 5 (90% or more of herbicidal effect and crop phytotoxicity)
[7]
  herbicidal effect (index), Velvetleaf: 5 (90% or more of herbicidal effect and crop phytotoxicity)
[8]
  herbicidal effect, Barnyardgrass: 5 (90% or more of herbicidal effect and crop phytotoxicity)
[9]
  herbicidal effect, Green Foxtail: 3 (50 to less than 70% of herbicidal effect and crop phytotoxicity)
[10]
  herbicidal effect, Slender Amaranth: 5 (90% or more of herbicidal effect and crop phytotoxicity)
[11]
  herbicidal effect, Velvetleaf: 4 (70 to less than 90% of herbicidal effect and crop phytotoxicity)

## COCc1cc(-n2c(C(F)(F)F)ccc(C(=O)C3=C(O)CCCC3=O)c2=O)ccc1F [I-111]
[1]
  herbicidal effect, Scirpus juncoides Roxb.: 5 (90% or more of herbicidal effect and crop phytotoxicity)
[2]
  herbicidal effect, Echinochloa oryzicola Vasing: 5 (90% or more of herbicidal effect and crop phytotoxicity)
[3]
  herbicidal effect, Monochoria vaginalis (Burm. f.) C. Presl: 5 (90% or more of herbicidal effect and crop phytotoxicity)
[4]
  herbicidal effect (index), Barnyardgrass: 5 (90% or more of herbicidal effect and crop phytotoxicity)
[5]
  herbicidal effect (index), Green Foxtail: 5 (90% or more of herbicidal effect and crop phytotoxicity)
[6]
  herbicidal effect (index), Slender Amaranth: 5 (90% or more of herbicidal effect and crop phytotoxicity)
[7]
  herbicidal effect (index), Velvetleaf: 5 (90% or more of herbicidal effect and crop phytotoxicity)
[8]
  herbicidal effect, Barnyardgrass: 5 (90% or more of herbicidal effect and crop phytotoxicity)
[9]
  herbicidal effect, Green Foxtail: 5 (90% or more of herbicidal effect and crop phytotoxicity)
[10]
  herbicidal effect, Slender Amaranth: 5 (90% or more of herbicidal effect and crop phytotoxicity)
[11]
  herbicidal effect, Velvetleaf: 5 (90% or more of herbicidal effect and crop phytotoxicity)

## O=C1CCCC(O)=C1C(=O)c1ccc(C(F)(F)F)n(Cc2ccccc2)c1=O [I-114]
[1]
  herbicidal effect, Scirpus juncoides Roxb.: 5 (90% or more of herbicidal effect and crop phytotoxicity)
[2]
  herbicidal effect, Echinochloa oryzicola Vasing: 5 (90% or more of herbicidal effect and crop phytotoxicity)
[3]
  herbicidal effect, Monochoria vaginalis (Burm. f.) C. Presl: 5 (90% or more of herbicidal effect and crop phytotoxicity)
[4]
  herbicidal effect (index), Barnyardgrass: 5 (90% or more of herbicidal effect and crop phytotoxicity)
[5]
  herbicidal effect (index), Green Foxtail: 4 (70 to less than 90% of herbicidal effect and crop phytotoxicity)
[6]
  herbicidal effect (index), Slender Amaranth: 5 (90% or more of herbicidal effect and crop phytotoxicity)
[7]
  herbicidal effect (index), Velvetleaf: 5 (90% or more of herbicidal effect and crop phytotoxicity)
[8]
  herbicidal effect, Barnyardgrass: 5 (90% or more of herbicidal effect and crop phytotoxicity)
[9]
  herbicidal effect, Green Foxtail: 4 (70 to less than 90% of herbicidal effect and crop phytotoxicity)
[10]
  herbicidal effect, Slender Amaranth: 5 (90% or more of herbicidal effect and crop phytotoxicity)
[11]
  herbicidal effect, Velvetleaf: 5 (90% or more of herbicidal effect and crop phytotoxicity)

## N#Cc1cccc(Cn2c(C(F)(F)F)ccc(C(=O)C3=C(O)CCCC3=O)c2=O)c1 [I-118]
[1]
  herbicidal effect, Scirpus juncoides Roxb.: 5 (90% or more of herbicidal effect and crop phytotoxicity)
[2]
  herbicidal effect, Echinochloa oryzicola Vasing: 5 (90% or more of herbicidal effect and crop phytotoxicity)
[3]
  herbicidal effect, Monochoria vaginalis (Burm. f.) C. Presl: 5 (90% or more of herbicidal effect and crop phytotoxicity)
[4]
  herbicidal effect (index), Barnyardgrass: 5 (90% or more of herbicidal effect and crop phytotoxicity)
[5]
  herbicidal effect (index), Green Foxtail: 4 (70 to less than 90% of herbicidal effect and crop phytotoxicity)
[6]
  herbicidal effect (index), Slender Amaranth: 5 (90% or more of herbicidal effect and crop phytotoxicity)
[7]
  herbicidal effect (index), Velvetleaf: 5 (90% or more of herbicidal effect and crop phytotoxicity)
[8]
  herbicidal effect, Barnyardgrass: 5 (90% or more of herbicidal effect and crop phytotoxicity)
[9]
  herbicidal effect, Green Foxtail: 5 (90% or more of herbicidal effect and crop phytotoxicity)
[10]
  herbicidal effect, Slender Amaranth: 5 (90% or more of herbicidal effect and crop phytotoxicity)
[11]
  herbicidal effect, Velvetleaf: 5 (90% or more of herbicidal effect and crop phytotoxicity)
